In patent US5495032A, “Process for producing 7-(substituted)-8-(substituted-9-[(substituted glycyl)amido]-6-demethyl-6-deoxytetracyclines” (priority 1994, dated 1996):
≈ marks a conversion by molar mass, not a printed value. Counter-ions that a name gives are not always drawn. Like-named read-outs stand apart in the source and are kept apart here.

How the values were obtained:
Format in all cases: cell-based
E. coli J3272 Tet D = assay: microbe, parasite or virus in culture; conditions: Escherichia coli, J3272TETD, 18 h
S. aureus NEMC 8769 = assay: MIC, agar dilution method; conditions: Staphylococcus aureus, NEMC8769; S. aureus NEMC 8769; 18 hours at 35° C.; read-out: MIC
E. coli BAJ9003 IMP MUT = assay: microbe, parasite or virus in culture; conditions: Escherichia coli, BAJ9003IMPMUT, 18 h, 18 hours at 35° C.
[1] = system: S. aureus UBMS 88-7 Tet K; assay: microbe, parasite or virus in culture; conditions: Staphylococcus aureus, UBMS887TETK, 18 h, 18 hours at 35° C.
E. faecalis ATCC 29212 = assay: MIC, agar dilution method; conditions: Enterococcus faecalis
E. coli UBMS 89-1 Tet M = assay: microbe, parasite or virus in culture; conditions: Escherichia coli, UBMS891TETM, 18 h, 18 hours at 35° C.
E. coli #311 (MP) = assay: MIC, agar dilution method; conditions: Escherichia coli, 18 hours at 35° C., read-out: MIC
[2] = system: E. coli MC 4100 TNIOC Tet B; assay: microbe, parasite or virus in culture; conditions: Escherichia coli, 18 h, 18 hours at 35° C.
S. aureus IVES 1 983 = assay: MIC, agar dilution method; conditions: Staphylococcus aureus
S. aureus ROSE (MP) = assay: MIC, agar dilution method; conditions: Staphylococcus aureus, 18 hours at 35° C.
E. coli UBMS 88-1 Tet B = assay: microbe, parasite or virus in culture; conditions: Escherichia coli, UBMS881TETB, 18 h, 18 hours at 35° C.
E. coli J2175 = assay: MIC, agar dilution method; conditions: Escherichia coli, 18 hours at 35° C., read-out: MIC
S. mariescens FPOR 8733 = assay: MIC, agar dilution method; conditions: 18 h, 18 hours at 35° C.
[3] = system: E. coli UBMS 89-2 Tet sens; assay: MIC, agar dilution method; conditions: Escherichia coli, UBMS892TETSENS, 18 h, 18 hours at 35° C., read-out: MIC
E. coli UBMS 90-4 Tet M = assay: microbe, parasite or virus in culture; conditions: Escherichia coli, UBMS904TETM, 18 h, 18 hours at 35° C.
[4] = system: S. aureus UBMS 90-1 Tet M; assay: microbe, parasite or virus in culture; conditions: Staphylococcus aureus, UBMS901TETM, 18 h, 18 hours at 35° C.
[5] = system: X. maltophilia NEMC 87210; assay: MIC, agar dilution method; conditions: Stenotrophomonas maltophilia
E. coli UBMS 90-5 sens = assay: MIC, agar dilution method; conditions: Escherichia coli, UBMS905SENS, 18 hours at 35° C., read-out: MIC
S. aureus ATCC 29213 = assay: MIC, agar dilution method; conditions: Staphylococcus aureus, ATCC29213, 18 hours at 35° C., read-out: MIC
[6] = system: Ps. acruginosa ATCC 27853; assay: MIC, agar dilution method
E. coli ATCC 25922 = assay: MIC, agar dilution method; conditions: Escherichia coli, ATCC25922, 18 hours at 35° C., read-out: MIC
S. aureus SMITH (MP) = assay: MIC, agar dilution method; conditions: Staphylococcus aureus, 18 hours at 35° C., read-out: MIC
E. coli PRP1 Tet A = assay: microbe, parasite or virus in culture; conditions: Escherichia coli, PRP1TETA, 18 h, 18 hours at 35° C.
S. aureus IVES 2943 = assay: MIC, agar dilution method; conditions: Staphylococcus aureus
E. coli J3272 Tet C = assay: microbe, parasite or virus in culture; conditions: Escherichia coli, J3272TETC, 18 h
[7] = system: S. hemolyticus AVHAH 88-3; assay: MIC, agar dilution method; conditions: Streptococcus pyogenes
Enterococcus 12201 = assay: MIC, agar dilution method; conditions: 18 hours at 35° C.
S. aureus UBMS 88-4 = assay: MIC, agar dilution method; conditions: Staphylococcus aureus, UBMS884, 18 hours at 35° C., read-out: MIC
[8] = system: S. aureus UBMS 88-5 Tet M; assay: microbe, parasite or virus in culture; conditions: Staphylococcus aureus, UBMS885TETM, 18 h
[9] = system: S. aureus UBMS 90-2 Tet M; assay: microbe, parasite or virus in culture; conditions: Staphylococcus aureus, UBMS902TETM, 18 h, 18 hours at 35° C.
[10] = system: E. coli MC 4100 Tet sens.; assay: MIC, agar dilution method; conditions: Escherichia coli, 18 hours at 35° C., read-out: MIC
[11] = ATCC29212, 18 h, 18 hours at 35° C.
[12] = IVES1983, S. aureus IVES 1 983, 18 hours at 35° C., read-out: MIC
[13] = NEMC87210, 18 h, 18 hours at 35° C.
[14] = IVES2943, S. aureus IVES 2943, 18 hours at 35° C., read-out: MIC
[15] = AVHAH883, 18 hours at 35° C., read-out: MIC
[16] = S. aureus UBMS 88-5 Tet M, 18 hours at 35° C.
[17] = AVHAH883, 18 h, 18 hours at 35° C.

Row | SMILES | MIC (E. coli J3272 Tet D) | MIC (S. aureus NEMC 8769) | MIC (E. coli BAJ9003 IMP MUT) | MIC [1] | MIC (E. faecalis ATCC 29212; [11]) | MIC (E. coli UBMS 89-1 Tet M) | MIC (E. coli #311 (MP)) | MIC [2] | MIC (S. aureus IVES 1 983; [12]) | MIC (S. aureus ROSE (MP); read-out: MIC) | MIC (E. coli UBMS 88-1 Tet B) | MIC (E. coli J2175) | MIC (S. mariescens FPOR 8733) | MIC [3] | MIC (E. coli UBMS 90-4 Tet M) | MIC [4] | MIC [5, 13] | MIC (E. coli PRP1 Tet A) | MIC (E. coli J3272 Tet C) | MIC [9] | other results
1 | CCCCNCC(=O)Nc1c(Cl)cc2c(c1O)C(=O)C1=C(O)[C@]3(O)C(=O)C(C(N)=O)=C(O)[C@@H](N(C)C)C3CC1C2 (stereo partly drawn) [D, [4S-(4α,12aα)]-9-[[(Butylamino)acetyl]amino]-8-chloro-4-(dimethylamino) -1,4,4a,5,5a,6,11,12a-octahydro-3,10,12,12a-tetrahydroxy-1,11-dioxo-2-naphthacenecarboxamide dihydrochloride] | 1 µg/mL | 0.5 µg/mL | 0.25 µg/mL | 8 µg/mL | 0.25 µg/mL | 0.5 µg/mL | 1 µg/mL | 1 µg/mL | 8 µg/mL | 16 µg/mL | 2 µg/mL | 1 µg/mL | 16 µg/mL | 2 µg/mL | 1 µg/mL | 2 µg/mL | 4 µg/mL | 4 µg/mL | 2 µg/mL | 0.5 µg/mL | MIC (E. coli UBMS 90-5 sens): 1 µg/mL; MIC (S. aureus ATCC 29213): 0.5 µg/mL; MIC ([6]; 18 h): > 32 µg/mL; MIC (E. coli ATCC 25922): 1 µg/mL; MIC (S. aureus SMITH (MP)): 0.5 µg/mL; MIC (S. aureus IVES 2943; [14]): 16 µg/mL; MIC [7, 15]: 8 µg/mL; MIC (Enterococcus 12201; read-out: MIC): 0.5 µg/mL; MIC (S. aureus UBMS 88-4): 0.5 µg/mL; MIC [8]: 1 µg/mL; MIC [10]: 0.25 µg/mL
2 | CN(C)[C@@H]1C(O)=C(C(N)=O)C(=O)[C@@]2(O)C(O)=C3C(=O)c4c(cc(Cl)c(NC(=O)CCl)c4O)CC3CC12 (stereo partly drawn) [K, [4S-(4α,12aα)]-9-[(Chloroacetyl)amino]-8-chloro-4-(dimethylamino)-1,4,4a,5,5a ,6,11,12a-octahydro-3,10,12,12a-tetrahydroxy-1,11-dioxo-2-naphthacenecarboxamide hydrochloride] | > 32 µg/mL | 0.5 µg/mL | 1 µg/mL | 4 µg/mL |  | 8 µg/mL | 16 µg/mL | > 32 µg/mL | 4 µg/mL | 4 µg/mL | > 32 µg/mL | > 32 µg/mL | > 32 µg/mL | > 32 µg/mL | > 32 µg/mL | 1 µg/mL |  | > 32 µg/mL | > 32 µg/mL | 0.5 µg/mL | MIC (E. faecalis ATCC 29212; ATCC29212, 18 hours at 35° C., read-out: MIC): 0.5 µg/mL; MIC ([5]; NEMC87210, 18 hours at 35° C., read-out: MIC): 8 µg/mL; MIC (E. coli UBMS 90-5 sens): > 32 µg/mL; MIC (S. aureus ATCC 29213): 0.5 µg/mL; MIC ([6]; Ps. acruginosa ATCC 27853, 18 hours at 35° C., read-out: MIC): > 32 µg/mL; MIC (E. coli ATCC 25922): 16 µg/mL; MIC (S. aureus SMITH (MP)): 0.5 µg/mL; MIC (S. aureus IVES 2943; [14]): 4 µg/mL; MIC [7, 15]: 4 µg/mL; MIC (Enterococcus 12201; read-out: MIC): 2 µg/mL; MIC (S. aureus UBMS 88-4): 0.5 µg/mL; MIC [8, 16]: 1 µg/mL; MIC [10]: 8 µg/mL
3 | CN(C)c1ccc(O)c2c1C[C@H]1C[C@H]3[C@H](N(C)C)C(O)=C(C(N)=O)C(=O)[C@@]3(O)C(O)=C1C2=O [L, Minocycline, reference compound] |  |  |  | 0.25 µg/mL (≈ 0.546 µM) |  |  |  |  |  | 1 µg/mL (≈ 2.19 µM) |  |  |  |  | > 32 µg/mL | 8 µg/mL (≈ 17.5 µM) | 0.25 µg/mL (≈ 0.546 µM) |  |  |  | MIC [7, 17]: 0.25 µg/mL (≈ 0.546 µM); MIC [8]: 8 µg/mL (≈ 17.5 µM)
4 | CN(C)[C@@H]1C(O)=C(C(N)=O)C(=O)[C@@]2(O)C(O)=C3C(=O)c4c(O)cccc4[C@@](C)(O)[C@H]3C[C@@H]12 [M, Tetracycline] | > 32 µg/mL |  |  | > 32 µg/mL | 16 µg/mL (≈ 36 µM) | 32 µg/mL (≈ 72 µM) |  | > 32 µg/mL |  |  | > 32 µg/mL | 2 µg/mL (≈ 4.5 µM) | > 32 µg/mL | 2 µg/mL (≈ 4.5 µM) | 32 µg/mL (≈ 72 µM) | > 32 µg/mL | 8 µg/mL (≈ 18 µM) | 32 µg/mL (≈ 72 µM) | > 32 µg/mL | 32 µg/mL (≈ 72 µM) | MIC (S. aureus IVES 1 983; IVES1983, 18 h): > 32 µg/mL; MIC (S. aureus ROSE (MP); 18 h): > 32 µg/mL; MIC ([6]; 18 h): 16 µg/mL (≈ 36 µM); MIC (S. aureus IVES 2943; IVES2943, 18 h): > 32 µg/mL; MIC [7, 17]: 1 µg/mL (≈ 2.25 µM); MIC (Enterococcus 12201; Enterococcus, 12201, 18 h): > 32 µg/mL; MIC [8, 16]: > 32 µg/mL
